Publication PMC11737341, “Cloning and functional verification of Geraniol-10-Hydroxylase gene in Lonicera japonica” (PeerJ, 2025)

Target: T1, LjG10H (geraniol 10-hydroxylase) (Lonicera japonica, UniProt U5NH25)
T1 construct: pET32a, N-terminal TRX/His tag kept (band about 72 kDa), E. coli BL21, Ni column
Experiment: HPLC detection of 10-hydroxygeraniol formed by purified recombinant protein
Type: biochemical
Details: 2.5 mmol/L geraniol, 1 mmol/L NADPH with glucose-6-phosphate / G6PDH, FAD, FMN, EDTA, DTT, potassium phosphate pH 7.6, 30 °C, 3 h; no P450 reductase mentioned

T1 sequence (U5NH25 entry or part of it): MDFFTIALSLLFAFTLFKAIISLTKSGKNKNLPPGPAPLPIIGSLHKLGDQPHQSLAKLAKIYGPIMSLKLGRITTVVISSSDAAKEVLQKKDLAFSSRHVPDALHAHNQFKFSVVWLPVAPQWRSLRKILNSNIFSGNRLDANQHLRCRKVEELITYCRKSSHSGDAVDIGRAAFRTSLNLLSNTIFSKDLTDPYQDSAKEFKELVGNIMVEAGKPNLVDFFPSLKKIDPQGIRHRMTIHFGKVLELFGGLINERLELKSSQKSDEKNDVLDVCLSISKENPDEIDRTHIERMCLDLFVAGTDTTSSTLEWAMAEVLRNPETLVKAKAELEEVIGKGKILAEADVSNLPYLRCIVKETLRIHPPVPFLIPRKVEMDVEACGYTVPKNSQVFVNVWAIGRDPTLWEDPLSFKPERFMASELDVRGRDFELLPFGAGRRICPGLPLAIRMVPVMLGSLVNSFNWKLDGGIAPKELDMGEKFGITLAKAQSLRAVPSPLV

## CC(C)=CCC/C(C)=C/CO [geraniol]
  HPLC detection of 10-hydroxygeraniol formed by purified recombinant protein: LjG10H exhibits catalytic activity in the conversion of geraniol to 10-hydroxygeraniol in vitro
